Laboratory results: US6914045B2, “Glycopeptide antibiotics” (Wyeth Holdings Corporation, priority 2001, dated 2005)
Converted amounts (≈) assume the structure as drawn.

Assays:
Experiment in all cases: in vitro antibacterial evaluation, MIC by broth dilution
Assay type in all cases: cell-based
Details in all cases: broth dilution, 18 hours at 35° C.
Escherichia coli = test system: Escherichia coli
How it was run: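 Broth dilution MIC per NCCLS M7-A2 in Mueller-Hinton II medium, inoculum 5×10^5 CFU/mL, antibiotic range 64-0.06 μg/mL. MIC taken as lowest concentration inhibiting growth.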

Enterococcus sp. = test system: Enterococcus sp.
How it was run: (§1)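 MIC = lowest antibiotic concentration preventing visible growth; inoculum 5×10^5 CFU/mL; drug range 64-0.06 μg/mL; Muller-Hinton II […]; NCCLS M7-A2 guidance.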

Staphylococcus sp. = test system: Staphylococcus sp.
How it was run: as §1

Streptococcus sp. = test system: Streptococcus sp.
How it was run: as §1

CC(C1CCCCC1)C1NC(=O)CNC(=O)C(CO)NC(=O)C(C(O)C2CNC(=N)N2C2OC(CO)C(O)C(O)C2O)NC(=O)C(C(O)C2CNC(=N)N2)NC(=O)C(C[C@H]2CC[C@@H](O)CC2)NC1=O (stereo partly drawn) [Example 54, Cyclo[3-(syn-4-hydroxycyclohexyl)alanyl-3-(2-ininoimidazolidin-4-yl)seryl-3-(3-hexopyranosyl-2-iminoimidazolidin-4-yl)serylserylglycyl-3-cyclohexyl-2-aminobutanoyl]]
MIC Escherichia coli (ATCC 25922) (Escherichia coli; strain ATCC 25922): >128 µg/mL | MIC Escherichia coli (GC 4559) (Escherichia coli; strain GC 4559): >128 µg/mL | MIC Escherichia coli (GC 4560) (Escherichia coli; strain GC 4560): >128 µg/mL | MIC Enterococcus avium (GC 4558) (Enterococcus sp.; Enterococcus avium (GC 4558)): 128 µg/mL (≈ 130 µM) | MIC Enterococcus faecalis (ATCC 29212) (Enterococcus sp.; Enterococcus faecalis (ATCC 29212)): >128 µg/mL | MIC Enterococcus faecalis (GC 4552) (Enterococcus sp.; Enterococcus faecalis (GC 4552)): >128 µg/mL | MIC Enterococcus faecalis (GC 4553) (Enterococcus sp.; Enterococcus faecalis (GC 4553)): >128 µg/mL | MIC Enterococcus faecalis (GC 4554) (Enterococcus sp.; Enterococcus faecalis (GC 4554)): >128 µg/mL | MIC Enterococcus faecalis (GC 6189) (Enterococcus sp.; Enterococcus faecalis (GC 6189)): >128 µg/mL | MIC Enterococcus faecium (GC 2243) (Enterococcus sp.; Enterococcus faecium (GC 2243)): >128 µg/mL | MIC Enterococcus faecium (GC 4556) (Enterococcus sp.; Enterococcus faecium (GC 4556)): >128 µg/mL | MIC Enterococcus faecium (GC 4557) (Enterococcus sp.; Enterococcus faecium (GC 4557)): 128 µg/mL (≈ 130 µM) | MIC Enterococcus faecalis (ATCC 29212) (Enterococcus sp.; strain ATCC 29212): >128 µg/mL | MIC Enterococcus faecalis (GC 2242) (Enterococcus sp.; strain GC 2242): >128 µg/mL | MIC Enterococcus faecium (GC 2243) (Enterococcus sp.; strain GC 2243): >128 µg/mL | MIC Enterococcus faecalis (GC 2691) (Enterococcus sp.; strain GC 2691): >128 µg/mL | MIC Enterococcus faecalis (GC 3059) (Enterococcus sp.; strain GC 3059): >128 µg/mL | MIC Enterococcus faecalis (GC 4552) (Enterococcus sp.; strain GC 4552): >128 µg/mL | MIC Enterococcus faecalis (GC 4553) (Enterococcus sp.; strain GC 4553): >128 µg/mL | MIC Enterococcus faecalis (GC 4554) (Enterococcus sp.; strain GC 4554): >128 µg/mL | MIC Enterococcus faecium (GC 4556) (Enterococcus sp.; strain GC 4556): >128 µg/mL | MIC Enterococcus faecium (GC 4557) (Enterococcus sp.; strain GC 4557): 128 µg/mL (≈ 130 µM) | MIC Enterococcus avium (GC 4558) (Enterococcus sp.; strain GC 4558): 128 µg/mL (≈ 130 µM) | MIC Enterococcus faecalis (GC 6189) (Enterococcus sp.; strain GC 6189): >128 µg/mL | MIC Staphylococcus aureus (ATCC 29213) (Staphylococcus sp.; strain ATCC 29213): >128 µg/mL | MIC Staphylococcus aureus (GC 1131) (Staphylococcus sp.; strain GC 1131): >128 µg/mL | MIC Staphylococcus aureus (GC 3051) (Staphylococcus sp.; strain GC 3051): >128 µg/mL | MIC Staphylococcus aureus (GC 3053) (Staphylococcus sp.; strain GC 3053): >128 µg/mL | MIC Staphylococcus aureus (GC 4541) (Staphylococcus sp.; strain GC 4541): >128 µg/mL | MIC Staphylococcus aureus (GC 4542) (Staphylococcus sp.; strain GC 4542): >128 µg/mL | MIC Staphylococcus aureus-SMITH (GC 4543) (Staphylococcus sp.; strain GC 4543): >128 µg/mL | MIC Staphylococcus aureus (GC 4544) (Staphylococcus sp.; strain GC 4544): >128 µg/mL | MIC Staphylococcus aureus (GC 4545) (Staphylococcus sp.; strain GC 4545): >128 µg/mL | MIC Staphylococcus haemolyticus (GC 4546) (Staphylococcus sp.; strain GC 4546): >128 µg/mL | MIC Coagulase Negative Staphylococcus (GC 4547) (Staphylococcus sp.; strain GC 4547): >128 µg/mL | MIC Coagulase Negative Staphylococcus (GC 4548) (Staphylococcus sp.; strain GC 4548): >128 µg/mL | MIC Coagulase Negative Staphylococcus (GC 4549) (Staphylococcus sp.; strain GC 4549): >128 µg/mL | MIC Coagulase Negative Staphylococcus (GC 4551) (Staphylococcus sp.; strain GC 4551): >128 µg/mL | MIC Streptococcus pneumoniae (ATCC 6301) (Streptococcus sp.; strain ATCC 6301): >128 µg/mL | MIC Streptococcus pneumoniae (GC 1894) (Streptococcus sp.; strain GC 1894): 128 µg/mL (≈ 130 µM) | MIC Streptococcus pyogenes (GC 4563) (Streptococcus sp.; strain GC 4563): >128 µg/mL | MIC Streptococcus agalactiae (GC 4564) (Streptococcus sp.; strain GC 4564): >128 µg/mL | MIC Streptococcus pneumoniae (GC 4565) (Streptococcus sp.; strain GC 4565): >128 µg/mL
